Article PMC7179302, “Lead Optimization of Dehydroemetine for Repositioned Use in Malaria” (Antimicrobial Agents and Chemotherapy, 2020)
Counter-ions that a name gives are not always drawn.

Assays:
[1] = system: Plasmodium falciparum rings and trophozoites/schizonts; experiment: Stage-specific profiling using synchronized cultures; type: cell-based; conditions: highest concentration tested, 24 h exposure, read 24 h after postexposure wash
Protocol: Parasite cultures with ≥80% trophozoites and ≥80% rings were obtained by synchronization with 5% sorbitol ([42]). The cultures were synchronized twice, at 0 h and 31 h, to obtain young rings which were up to 3 h old. To obtain early schizont stages, the cultures were synchronized twice, with the second synchronization being 6 to 8 h after the first. […] The plates were washed 4 times after the incubation in order to dilute the drug concentration by >1,000-fold. The plates were incubated for another 24 h at 37°C, following which SYBR green staining was used to read the plates as described above.

[2] = system: K1 strain P. falciparum, unsynchronized cultures; experiment: IC50 speed assay (time course) using unsynchronized cultures; type: cell-based, Plasmodium falciparum; conditions: for 24-h IC50 / Time by which the IC50 was reached: unsynchronized cultures; for 24-h IC50: 24 h exposure; for Time by which the IC50 was reached: IC50 speed assay
Protocol: Following drug efficacy experiments, 150-μl amounts from the control and drug-treated wells on a 96-well plate were transferred to microcentrifuge tubes, and samples were washed once with phosphate-buffered saline (PBS). The supernatant was removed, and samples were incubated in the dark at room temperature for 20 min following the addition of 1 ml of 5× SYBR green solution (prepared by adding 5 μl of 10,000× SYBR green to 10 ml PBS). After staining, the samples were centrifuged for 1 min at 14,000 rpm and the supernatant was discarded. Samples were resuspended in 250 μl of 0.37% formaldehyde fixation solution prepared by diluting 36.5% formaldehyde (Sigma, UK) with PBS to the specified final concentration. The samples were placed in the refrigerator and incubated at 4°C for 15 min. Subsequently, PBS was used to wash the samples 3 times, and finally, the samples were suspended in 1 ml PBS. Parasitemia was determined by measuring SYBR green fluorescence using the FITC channel of the BD FACSVerse flow cytometer system (blue laser; excitation laser line, 488 nm, with excitation maximum of 494 nm and emission maximum of […]) and cell size (forward scatter [FSC-A]). Fifty thousand events were recorded, in three replicates for each. Fluorescence events in drug-treated samples were compared with those in their infected and uninfected blood counterparts and gated accordingly to obtain the percentages of parasitemia.
The IC50 speed assay was used to determine the speeds of action of the emetine analogues. Unsynchronized cultures of K1 strain P. falciparum were used, and parasites were grown in the presence of (−)-R,S-dehydroemetine and (−)-S,S-dehydroisoemetine for three incubation periods of 24 h, 48 h, and 72 h. The assays were analyzed by determining SYBR green fluorescence as described above.
The results for the infected-blood controls were set at 100% for normalization, and percentages of parasitemia for drug-treated samples were calculated relative to the results for the infected controls. For IC50 values, GraphPad Prism 5.0 was used to further process the data. IC50 values were calculated using nonlinear regression (GraphPad Prism 5.0) by using log-transformed drug concentrations plotted against the dose response. The log(inhibitor) versus normalized response-variable slope option was used for IC50 calculation. Emetine dihydrochloride was used as a control drug to validate the method.

[3] = system: P. falciparum strain 3D7A; experiment: 3H-hypoxanthine incorporation assay, strain 3D7A; type: cell-based; conditions: Plasmodium falciparum, read-out: IC50 (μM) 3D7A
Protocol: The cross-resistance assay used relies on the parasites’ incorporation of labeled 3H-hypoxanthine, which is proportional to P. falciparum growth. In vitro cross-resistance of the compounds is measured as the ratio between the IC50 for the tested P. falciparum strain and the IC50 for strain 3D7A. Every replicate from a multidrug-resistant (MDR) strain involved a simultaneous determination using a 3D7A replicate to avoid any artifact linked to experimental conditions.
The three strains used for the cross-resistance assay were 3D7A, Dd2, and W2, based on their resistance profiles; the assay was carried out by GSK, Tres Cantos. Strain 3D7A is chloroquine sensitive, strain Dd2 is resistant to chloroquine, mefloquine, and pyrimethamine ([57]), and strain W2 is resistant to chloroquine, quinine, pyrimethamine, cycloguanil, and sulfadoxine (from the Malaria Research and Reference Reagent Resource Center [MR4]) ([58]). A culture of red blood cells (RBCs) parasitized by the corresponding strain (0.5% parasitemia, 2% hematocrit) in RPMI 1640, […], and 5 μM hypoxanthine was exposed to 9 dilutions (3-fold serial dilutions) of the compound starting at 5 μM. One hundred microliters of culture volume was plated in 96-well flat-bottom microtiter plates with 0.5 μl drug (200× stock in DMSO). Plates were incubated for 24 h at 37°C, 5% CO2, 5% O2, 90% N2. Next, 3H-hypoxanthine was added and plates were incubated for another 24-h period. After that, parasites were harvested on a glass fiber filter using a TomTec cell harvester 96. Filters were dried, and melt-on scintillator sheets were used to determine the incorporation of 3H-hypoxanthine. Radioactivity was measured using a MicroBeta counter. […] IC50 values were determined using the Grafit 7 program ([41]).

HepG2 cells = experiment: MTT assay for cell cytotoxicity against HepG2 cells; type: cell-based; conditions: for LD50 (50% lethal dose), MTT assay: HepG2 cells, 48 h, ± SD
Protocol: HepG2 cells (University of Salford stocks, purchased from American Type Culture Collection [ATCC], USA), were grown in medium consisting of RPMI 1640, 2 mM L-glutamine, HEPES, 10% fetal bovine serum, 1% nonessential amino acids, and 1% penicillin-streptomycin. Cells were calculated on a hemocytometer to make a new cell-medium solution to a concentration of 5,000 cells/100 μl, and 100 μl of this new cell solution was added into each well of the 96-well plate. After 24 h of incubation, 100-μl amounts of the drug prepared in the medium were added to the wells. This was repeated in triplicate, and the plate was incubated for a further 48 h ([56]). After the incubation period, 50 μl of MTT solution was added to each well and incubated for 3 h. The liquid in each well was aspirated carefully, 200 μl of DMSO was added to each well, and the results were read on the Ascent plate reader.

## CCC1=C(C[C@H]2NCCc3cc(OC)c(OC)cc32)C[C@H]2c3cc(OC)c(OC)cc3CCN2C1 [(−)-R,S-dehydroemetine, (S)-2-((R)-6,7-dimethoxy-1,2,3,4-tetrahydro-isoquinolin-1-ylmethyl)-3-ethyl-9,10-dimethoxy-1,6,7,11b-tetrahydro-4H-pyrido[2,1-a]isoquinoline * dihydrobromide]
[1]; 8500 (nM per legend)
  Parasitaemia (percentage) Rings: 50.21%
  Parasitaemia (percentage) Trophozoites: 19.75%
[2]; 25 nM, 24 hours
  % Parasitaemia: 99.25%
[2]; 25 nM, 48 hours
  % Parasitaemia: 95.85%
[2]; 25 nM, 72 hours
  % Parasitaemia: 98.62%
[2]; 50 nM, 24 hours
  % Parasitaemia: 93.88%
[2]; 50 nM, 48 hours
  % Parasitaemia: 69.64%
[2]; 50 nM, 72 hours
  % Parasitaemia: 89.44%
[2]; 100 nM, 24 hours
  % Parasitaemia: 89.00%
[2]; 100 nM, 48 hours
  % Parasitaemia: 30.44%
[2]; 100 nM, 72 hours
  % Parasitaemia: 17.06%
[2]; 200 nM, 24 hours
  % Parasitaemia: 77.03%
[2]; 200 nM, 48 hours
  % Parasitaemia: 22.37%
[2]; 200 nM, 72 hours
  % Parasitaemia: 13.20%
[2]; 400 nM, 24 hours
  % Parasitaemia: 72.09%
[2]; 400 nM, 48 hours
  % Parasitaemia: 19.29%
[2]; 400 nM, 72 hours
  % Parasitaemia: 11.63%
[2]
  24-h IC50: could not be reached within 24 h
  Time by which the IC50 was reached: ≤ 48 h
[3]
  IC50: 0.146 µM
HepG2 cells
  Selectivity index, LD50 HepG2 cells/IC50 parasites: 2.37
  LD50 (50% lethal dose), MTT assay: 168.07 ± 8.65 nM

## CCC1=C(C[C@@H]2NCCc3cc(OC)c(OC)cc32)C[C@H]2c3cc(OC)c(OC)cc3CCN2C1 [(−)-S,S-dehydroisoemetine, (S)-2-((S)-6,7-dimethoxy-1,2,3,4-tetrahydro-isoquinolin-1-ylmethyl)-3-ethyl-9,10-dimethoxy-1,6,7,11b-tetrahydro-4H-pyrido[2,1-a]isoquinoline * dihydrobromide]
[1]; 200 (μM per legend)
  Parasitaemia (percentage) Rings: 70.98%
  Parasitaemia (percentage) Trophozoites: 24.67%
[2]; 0.63 μM, 24 hours
  % Parasitaemia: 100.96%
[2]; 0.63 μM, 48 hours
  % Parasitaemia: 83.33%
[2]; 0.63 μM, 72 hours
  % Parasitaemia: 102.96%
[2]; 1.25 μM, 24 hours
  % Parasitaemia: 95.69%
[2]; 1.25 μM, 48 hours
  % Parasitaemia: 69.00%
[2]; 1.25 μM, 72 hours
  % Parasitaemia: 74.67%
[2]; 2.5 μM, 24 hours
  % Parasitaemia: 100.62%
[2]; 2.5 μM, 48 hours
  % Parasitaemia: 45.41%
[2]; 2.5 μM, 72 hours
  % Parasitaemia: 31.88%
[2]; 5 μM, 24 hours
  % Parasitaemia: 92.15%
[2]; 5 μM, 48 hours
  % Parasitaemia: 30.49%
[2]; 5 μM, 72 hours
  % Parasitaemia: 22.99%
[2]; 10 μM, 24 hours
  % Parasitaemia: 79.97%
[2]; 10 μM, 48 hours
  % Parasitaemia: 24.20%
[2]; 10 μM, 72 hours
  % Parasitaemia: 13.33%
[2]
  24-h IC50: could not be reached within 24 h
  Time by which the IC50 was reached: ≤ 48 h
[3]
  IC50: 1.03 µM
HepG2 cells
  Selectivity index, LD50 HepG2 cells/IC50 parasites: 0.69
  LD50 (50% lethal dose), MTT assay: 1429 ± 180 nM
